From ChEMBL document CHEMBL4339202, “Benzothiophene derivatives as phosphodiesterase 10A (PDE10A) inhibitors: Hit-to-lead studies” (Bioorg Med Chem Lett, 2019) come the findings set out here.

Series [1] deals with cAMP and cAMP-inhibited cGMP 3',5'-cyclic phosphodiesterase 10A (Homo sapiens, UniProt Q9Y233). The series can be described thus: Inhibition of human MOLT4 cell-derived PDE10A using [3H]cAMP as substrate measured after 2 hrs in presence of rolipram/milrinone by topcount method.
Series [2] addresses T1, Phosphodiesterase 7 (Homo sapiens, UniProt Q13946+Q9NP56). The series can be described thus: Inhibition of human MOLT4 cell-derived PDE7 using [3H]cAMP as substrate measured after 2 hrs in presence of rolipram/milrinone by topcount method. The format is protein assay.
The target of series [3] is hERG (KCNH2) (Homo sapiens, UniProt Q12809). The series can be described thus: Inhibition of human ERG at 10 uM relative to control.
A short description of series [4]: Selectivity ratio of IC50 for Balb/c mouse liver PDE2 to IC50 for human MOLT4 cell-derived PDE10A.
The species named for series [5] is Homo sapiens. In words: Selectivity ratio of IC50 for human MOLT4 cell-derived PDE7 to IC50 for human MOLT4 cell-derived PDE10A.
Series [6] is described as follows: Selectivity ratio of IC50 for Balb/c mouse liver PDE4 to IC50 for human MOLT4 cell-derived PDE10A.
Series [7] addresses CYP2D6 (Homo sapiens, UniProt P10635). In words: Inhibition of CYP2D6 (unknown origin) at 10 uM relative to control. Format: ADME.
The nature of series [8]: Inhibition of Balb/c mouse liver PDE2 using [3H]cAMP as substrate measured after 2 hrs in presence of cGMP by topcount method.
Series [9] can be described thus: Inhibition of Balb/c mouse lung PDE5 using [3H]cGMP as substrate measured after 2 hrs by topcount method.
Series [10] can be described thus: Selectivity ratio of IC50 for Balb/c mouse lung PDE5 to IC50 for human MOLT4 cell-derived PDE10A.
Series [11] can be described thus: Selectivity ratio of IC50 for Balb/c mouse liver PDE1 to IC50 for human MOLT4 cell-derived PDE10A.
Series [12] can be described thus: Inhibition of Balb/c mouse liver PDE1 using [3H]cAMP as substrate measured after 2 hrs in presence of calmodulin by topcount method.
Series [13] has as its target CYP3A4 (Homo sapiens, UniProt P08684). In words: Inhibition of CYP3A4 (unknown origin) at 10 uM relative to control. Format: ADME.
The nature of series [14]: Inhibition of Balb/c mouse liver PDE4 using [3H]cAMP as substrate measured after 2 hrs by topcount method.
For series [15], the target named is T1, Phosphodiesterase 7. The series can be described thus: Inhibition of human MOLT4 cell-derived PDE7 at 30 ug/ml using [3H]cAMP as substrate measured after 2 hrs in presence of rolipram/milrinone by topcount method relative to control. Format: protein assay.
Series [16] is filed under the species Mus musculus. The series can be described thus: Inhibition of Balb/c mouse liver PDE2 at 30 ug/ml using [3H]cAMP as substrate measured after 2 hrs in presence of cGMP by topcount method relative to control.
Series [17] is filed under the species Mus musculus. In words: Inhibition of Balb/c mouse liver PDE1 at 30 ug/ml using [3H]cAMP as substrate measured after 2 hrs in presence of calmodulin by topcount method relative to control.
For series [18], the species on record is Mus musculus. The series can be described thus: Inhibition of Balb/c mouse lung PDE5 at 30 ug/ml using [3H]cGMP as substrate measured after 2 hrs by topcount method relative to control.
Series [19] is filed under the species Mus musculus. In words: Inhibition of Balb/c mouse liver PDE4 at 30 ug/ml using [3H]cAMP as substrate measured after 2 hrs by topcount method relative to control.

Bounds are passed on as bounds.

Chain of cAMP and cAMP-inhibited cGMP 3',5'-cyclic phosphodiesterase 10A (Q9Y233 whole entry): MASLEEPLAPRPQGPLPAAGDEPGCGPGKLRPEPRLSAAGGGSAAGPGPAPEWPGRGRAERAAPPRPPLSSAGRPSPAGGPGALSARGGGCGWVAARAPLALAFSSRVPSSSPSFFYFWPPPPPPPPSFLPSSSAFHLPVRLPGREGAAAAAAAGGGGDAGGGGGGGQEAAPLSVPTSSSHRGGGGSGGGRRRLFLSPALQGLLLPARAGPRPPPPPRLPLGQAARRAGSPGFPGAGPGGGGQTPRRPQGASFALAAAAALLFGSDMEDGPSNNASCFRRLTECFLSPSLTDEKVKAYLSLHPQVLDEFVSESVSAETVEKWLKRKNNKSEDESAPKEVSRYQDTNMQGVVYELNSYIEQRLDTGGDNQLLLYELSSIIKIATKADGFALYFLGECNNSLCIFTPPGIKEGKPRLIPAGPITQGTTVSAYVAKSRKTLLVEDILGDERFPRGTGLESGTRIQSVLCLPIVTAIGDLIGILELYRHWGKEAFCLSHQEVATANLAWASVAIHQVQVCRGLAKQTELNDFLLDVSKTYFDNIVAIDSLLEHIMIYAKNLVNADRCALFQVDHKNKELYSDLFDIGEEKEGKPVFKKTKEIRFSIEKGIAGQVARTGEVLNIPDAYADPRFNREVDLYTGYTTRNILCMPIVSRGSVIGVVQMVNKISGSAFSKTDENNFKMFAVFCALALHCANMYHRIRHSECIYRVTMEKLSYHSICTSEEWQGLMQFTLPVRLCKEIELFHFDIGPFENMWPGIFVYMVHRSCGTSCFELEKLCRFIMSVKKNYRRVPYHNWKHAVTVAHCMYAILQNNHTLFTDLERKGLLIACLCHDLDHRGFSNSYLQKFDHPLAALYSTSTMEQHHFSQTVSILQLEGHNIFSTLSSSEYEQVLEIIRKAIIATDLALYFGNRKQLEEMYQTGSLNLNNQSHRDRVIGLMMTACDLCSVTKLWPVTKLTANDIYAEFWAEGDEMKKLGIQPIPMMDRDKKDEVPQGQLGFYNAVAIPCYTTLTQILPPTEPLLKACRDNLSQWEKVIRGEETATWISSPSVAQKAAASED
Chain of CYP3A4 (P08684 whole entry): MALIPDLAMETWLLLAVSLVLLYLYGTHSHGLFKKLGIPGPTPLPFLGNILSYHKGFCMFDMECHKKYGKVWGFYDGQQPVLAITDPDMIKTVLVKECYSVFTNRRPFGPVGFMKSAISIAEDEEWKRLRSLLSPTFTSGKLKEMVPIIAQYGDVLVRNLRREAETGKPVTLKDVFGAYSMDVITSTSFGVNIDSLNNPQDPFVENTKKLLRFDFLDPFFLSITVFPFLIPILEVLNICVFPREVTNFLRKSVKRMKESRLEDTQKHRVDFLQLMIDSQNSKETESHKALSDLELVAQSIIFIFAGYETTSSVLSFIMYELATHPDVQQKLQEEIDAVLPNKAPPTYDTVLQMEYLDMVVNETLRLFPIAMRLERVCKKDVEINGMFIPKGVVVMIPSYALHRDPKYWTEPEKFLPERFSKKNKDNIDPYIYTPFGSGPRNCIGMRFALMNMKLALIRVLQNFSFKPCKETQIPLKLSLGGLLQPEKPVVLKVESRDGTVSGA
Chain of hERG (KCNH2) (Q12809 whole entry): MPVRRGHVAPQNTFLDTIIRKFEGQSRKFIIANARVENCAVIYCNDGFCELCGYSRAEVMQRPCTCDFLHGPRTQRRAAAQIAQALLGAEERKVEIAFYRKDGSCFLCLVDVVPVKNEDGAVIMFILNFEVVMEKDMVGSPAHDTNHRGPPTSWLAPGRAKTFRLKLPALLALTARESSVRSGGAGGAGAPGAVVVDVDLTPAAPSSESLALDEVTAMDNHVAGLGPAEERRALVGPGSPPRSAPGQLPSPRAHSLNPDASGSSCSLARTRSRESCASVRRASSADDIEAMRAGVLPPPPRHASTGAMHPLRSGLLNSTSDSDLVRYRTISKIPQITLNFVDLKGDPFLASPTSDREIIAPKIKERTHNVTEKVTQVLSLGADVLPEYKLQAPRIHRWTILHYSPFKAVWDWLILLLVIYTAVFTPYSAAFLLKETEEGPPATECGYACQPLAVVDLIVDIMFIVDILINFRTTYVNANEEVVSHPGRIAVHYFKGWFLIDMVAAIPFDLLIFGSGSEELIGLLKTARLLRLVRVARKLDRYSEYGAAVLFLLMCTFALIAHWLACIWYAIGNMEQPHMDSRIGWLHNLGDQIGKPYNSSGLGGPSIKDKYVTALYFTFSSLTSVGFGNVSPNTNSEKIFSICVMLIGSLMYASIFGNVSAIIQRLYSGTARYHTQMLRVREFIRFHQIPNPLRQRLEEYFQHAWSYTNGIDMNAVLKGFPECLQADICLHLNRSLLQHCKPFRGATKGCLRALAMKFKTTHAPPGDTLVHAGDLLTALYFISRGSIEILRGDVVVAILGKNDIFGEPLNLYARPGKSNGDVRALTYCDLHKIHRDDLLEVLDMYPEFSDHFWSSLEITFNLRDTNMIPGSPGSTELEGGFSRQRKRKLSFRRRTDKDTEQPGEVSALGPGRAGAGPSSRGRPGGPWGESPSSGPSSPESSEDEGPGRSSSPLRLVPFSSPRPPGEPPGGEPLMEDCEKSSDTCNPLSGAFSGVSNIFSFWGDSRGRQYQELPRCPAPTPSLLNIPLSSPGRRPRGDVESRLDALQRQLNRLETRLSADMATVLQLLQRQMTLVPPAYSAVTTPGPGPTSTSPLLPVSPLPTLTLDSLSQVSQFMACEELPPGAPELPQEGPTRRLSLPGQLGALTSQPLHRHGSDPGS
Chain of CYP2D6 (P10635 whole entry): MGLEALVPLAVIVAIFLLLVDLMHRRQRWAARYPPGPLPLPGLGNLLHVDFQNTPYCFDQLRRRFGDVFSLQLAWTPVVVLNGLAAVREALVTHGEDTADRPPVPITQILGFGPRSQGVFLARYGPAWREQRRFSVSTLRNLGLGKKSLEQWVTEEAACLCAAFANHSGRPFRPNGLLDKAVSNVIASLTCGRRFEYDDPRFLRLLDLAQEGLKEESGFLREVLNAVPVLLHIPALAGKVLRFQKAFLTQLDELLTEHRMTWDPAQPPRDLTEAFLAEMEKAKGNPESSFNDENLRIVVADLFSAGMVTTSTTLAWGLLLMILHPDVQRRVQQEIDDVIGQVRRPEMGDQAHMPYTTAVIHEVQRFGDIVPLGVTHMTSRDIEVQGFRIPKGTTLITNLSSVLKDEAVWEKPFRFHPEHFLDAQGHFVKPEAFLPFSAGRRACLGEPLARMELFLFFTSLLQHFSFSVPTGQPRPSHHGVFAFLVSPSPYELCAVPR
T1 sequence (Q13946 whole entry, looked up): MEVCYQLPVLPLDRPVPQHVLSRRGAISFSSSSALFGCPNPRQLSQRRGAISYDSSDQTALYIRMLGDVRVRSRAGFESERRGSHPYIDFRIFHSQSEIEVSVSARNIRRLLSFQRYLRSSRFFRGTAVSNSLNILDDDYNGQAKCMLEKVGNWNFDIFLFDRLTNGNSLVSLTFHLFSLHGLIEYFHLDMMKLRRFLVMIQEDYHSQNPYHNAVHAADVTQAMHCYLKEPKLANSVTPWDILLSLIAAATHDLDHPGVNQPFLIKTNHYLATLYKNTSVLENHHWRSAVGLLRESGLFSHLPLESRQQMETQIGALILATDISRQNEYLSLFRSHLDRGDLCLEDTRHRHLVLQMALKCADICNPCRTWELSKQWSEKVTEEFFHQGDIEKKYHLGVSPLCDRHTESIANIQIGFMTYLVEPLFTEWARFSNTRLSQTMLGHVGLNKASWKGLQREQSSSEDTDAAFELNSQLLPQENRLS
T1 sequence (Q9NP56 whole entry, looked up): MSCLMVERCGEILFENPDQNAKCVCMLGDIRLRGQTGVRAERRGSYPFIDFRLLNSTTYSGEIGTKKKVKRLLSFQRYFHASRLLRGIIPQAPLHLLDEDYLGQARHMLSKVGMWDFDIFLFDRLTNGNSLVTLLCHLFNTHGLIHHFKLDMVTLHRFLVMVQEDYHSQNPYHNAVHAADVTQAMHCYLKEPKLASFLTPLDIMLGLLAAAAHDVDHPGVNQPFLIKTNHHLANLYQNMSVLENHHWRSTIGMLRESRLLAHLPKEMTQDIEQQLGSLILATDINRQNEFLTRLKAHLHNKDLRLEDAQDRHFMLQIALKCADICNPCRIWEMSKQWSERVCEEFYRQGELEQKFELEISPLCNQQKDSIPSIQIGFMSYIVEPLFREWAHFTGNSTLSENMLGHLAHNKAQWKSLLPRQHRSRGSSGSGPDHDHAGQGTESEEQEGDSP

For the compound `CC(=O)c1cccc2c(C)c(C(=O)Nc3ccc4ccccc4n3)sc12`, the IC50 in series [1] was 7.6 nM; in series [2] it was greater than 10000 nM; in series [8], greater than 10000 nM; in [9] it was greater than 10000 nM; in series [12], greater than 10000 nM; in [14], greater than 10000 nM. Besides, the inhibition at 10 µM in [3] is 10%; in series [7] it was 0%; in series [13] it was 0%. Besides, the Ratio IC50 in [4], in series [5], in series [6], in [10] and in series [11] was greater than 1300 each time.

Take `Cc1c(C(=O)Nc2ccc3ccccc3n2)sc2c(C(=O)N(C)C)cccc12`: in series [1], the IC50 was 44 nM.

Consider `CNC(=O)c1cccc2c(C)c(C(=O)Nc3ccc4ccccc4n3)sc12`, for which the IC50 in series [1] worked out at 23 nM.

With `Cc1c(C(=O)Nc2ccc3ccccc3n2)sc2c(-c3cccnc3)cccc12`, the IC50 in series [1] was found to be 120 nM.

For `CC(=O)c1ccc(C(C)=O)c2sc(C(=O)Nc3cc(C(C)(C)O)c4ccccc4n3)cc12`, the IC50 in series [1] is 13 nM.

As for `O=C(Nc1ccc2ccccc2n1)/C(=C/c1ccccc1)c1ccccc1`, the IC50 in series [1] was 440 nM. Also, the inhibition in series [15], in series [16], in [17], in [18] and in series [19] was less than 25% each time.

Consider `Cc1c(C(=O)Nc2ccc3ccccc3n2)sc2c(I)cccc12`, for which the IC50 in [1] is 200 nM.

As for `O=C(Nc1ccc2ccccc2n1)c1cc2cccc(-c3ccncc3)c2s1`, in [1], the IC50 is 47 nM.

In the case of `O=C(Nc1cc2cccccc-2n1)/C(=C/c1ccccc1)c1ccccc1`, the IC50 in series [1] amounted to 510 nM. The inhibition in [15] was less than 25%; in series [16], 25 to 50%; in series [17] it was 25 to 50%; in series [18], 25 to 50%; in [19], 25 to 50%.

As to `Cc1c(C(=O)Nc2ccc3ccccc3n2)sc2c(-c3ccncc3)cccc12`, the IC50 in [1] came to 4.7 nM. The inhibition at 10 µM came out at 36% in series [3], 45% in series [7] and 1% in [13].

For `Cc1c(C(=O)Nc2ccc3ccccc3n2)sc2c(C#N)cccc12`, the IC50 in [1] was found to be 110 nM.

As for `Cc1c(C(=O)Nc2ccc3ccccc3n2)sc2c(-c3ccccn3)cccc12`, the IC50 in series [1] amounted to 62 nM.

For `CCc1c(C(=O)Nc2ccc3ccccc3n2)sc2c(-c3ccncc3)cccc12`, the IC50 in series [1] was determined as 5.2 nM.

In the case of `Cc1c(C(=O)Nc2ccc3ccccc3n2)sc2c(C(N)=O)cccc12`, the IC50 in series [1] was determined as 23 nM.

For `Cc1c(C(=O)Nc2ccc3ccccc3n2)sc2c(-c3ccoc3)cccc12`, the IC50 in series [1] was found to be 320 nM.
